Data reported in ChEMBL document CHEMBL4118148, “Design, synthesis and cardiovascular evaluation of some aminoisopropanoloxy derivatives of xanthone” (Bioorg Med Chem, 2018).
pIC50: −log10 of the molar value. The source made the active and inactive calls. The calls are words filed in the database; no cut-off is given here.

Assays:
[1] = biological target: Beta-2 adrenergic receptor (Cavia porcellus, UniProt Q8K4Z4); experiment: Antagonist activity at adrenergic beta2 receptor in isolated guinea pig trachea assessed as inhibition of isoprenaline-induced bronchodilation incubated for 20 mins; assay type: functional; conditions: read-out: pA2 (converted)
Beta-2 adrenergic receptor, sequence (Q8K4Z4 whole entry): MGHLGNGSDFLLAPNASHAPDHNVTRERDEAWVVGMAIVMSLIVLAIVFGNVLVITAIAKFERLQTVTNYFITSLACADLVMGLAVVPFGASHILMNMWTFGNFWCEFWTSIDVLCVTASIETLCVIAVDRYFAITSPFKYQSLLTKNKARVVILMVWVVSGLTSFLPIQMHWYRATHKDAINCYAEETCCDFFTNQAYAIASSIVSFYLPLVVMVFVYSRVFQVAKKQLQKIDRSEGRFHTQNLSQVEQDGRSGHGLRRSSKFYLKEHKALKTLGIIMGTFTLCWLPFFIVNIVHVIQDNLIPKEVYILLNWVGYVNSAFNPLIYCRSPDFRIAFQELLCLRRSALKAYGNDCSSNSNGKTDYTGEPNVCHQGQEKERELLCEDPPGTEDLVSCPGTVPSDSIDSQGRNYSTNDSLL

Rattus norvegicus [2] = experiment: Hypotensive activity in normotensive Wistar rat assessed as diastolic blood pressure at 5 mg/kg, iv measured after 60 mins (reference value: 86.5 to 119.4 mmHg); assay type: functional
Blood [3] = experiment: Anti-aggregative activity in Wistar rat whole blood assessed as inhibition of collagen-induced aggregation preincubated for 3 mins followed by collagen induction measured for 6 mins; assay type: functional, tissue-based
Rattus norvegicus [4] = experiment: Cardiotoxicity in Wistar rat assessed as effect on QRS interval time at 5 mg/kg, iv measured after 15 mins (reference value: 16.7 to 20.7 ms); assay type: toxicity, organism-based; conditions: in vivo, 0.25 h
Rattus norvegicus [5] = experiment: Cardiotoxicity in Wistar rat assessed as effect on QTC interval time at 5 mg/kg, iv measured after 15 mins (reference value: 136.7 to 146.2 ms); assay type: toxicity, organism-based; conditions: in vivo, 0.25 h
Rattus norvegicus [6] = experiment: Hypotensive activity in normotensive Wistar rat assessed as diastolic blood pressure at 5 mg/kg, iv measured after 5 mins (reference value: 86.5 to 119.4 mmHg); assay type: functional
Rattus norvegicus [7] = experiment: Hypotensive activity in normotensive Wistar rat assessed as diastolic blood pressure at 5 mg/kg, iv measured after 10 mins (reference value: 86.5 to 119.4 mmHg); assay type: functional
Rattus norvegicus [8] = experiment: Hypotensive activity in normotensive Wistar rat assessed as reduction in systolic blood pressure administered iv measured after 60 mins; assay type: functional
[9] = biological target: Adrenergic receptor alpha-2 (Rattus norvegicus) (UniProt P22086+P19328+P22909); experiment: Displacement of [3H]-clonidine from adrenergic alpha2 receptor in Wistar rat cortex at 10^-5 M incubated for 25 mins by microbeta liquid scintillation counting analysis
Rattus norvegicus [10] = experiment: Cardiotoxicity in Wistar rat assessed as effect on PQ interval time at 5 mg/kg, iv measured after 5 mins (reference value: 52 to 57 ms); assay type: toxicity, organism-based; conditions: in vivo
Rattus norvegicus [11] = experiment: Cardiotoxicity in Wistar rat assessed as effect on QTC interval time at 5 mg/kg, iv measured after 5 mins (reference value: 136.7 to 146.2 ms); assay type: toxicity, organism-based; conditions: in vivo
Rattus norvegicus [12] = experiment: Hypotensive activity in normotensive Wistar rat assessed as diastolic blood pressure at 5 mg/kg, iv measured after 20 mins (reference value: 86.5 to 119.4 mmHg); assay type: functional
Rattus norvegicus [13] = experiment: Cardiotoxicity in Wistar rat assessed as effect on QTC interval time at 5 mg/kg, iv measured after 1 min (reference value: 136.7 to 146.2 ms); assay type: toxicity, organism-based; conditions: in vivo
Rattus norvegicus [14] = experiment: In vivo inhibition of beta adrenoceptor in Wistar rat assessed as reduction in isoprenaline-induced tachycardia at 5 mg/kg, iv administered as single dose 10 mins prior to isoprenaline injection; assay type: functional, organism-based
Rattus norvegicus [15] = experiment: Hypotensive activity in normotensive Wistar rat assessed as systolic blood pressure at 5 mg/kg, iv measured after 60 mins (reference value: 119.2 to 148.6 mmHg); assay type: functional
Rattus norvegicus [16] = experiment: Hypotensive activity in normotensive Wistar rat assessed as systolic blood pressure at 5 mg/kg, iv measured after 30 mins (reference value: 119.2 to 148.6 mmHg); assay type: functional
Rattus norvegicus [17] = experiment: Cardiotoxicity in Wistar rat assessed as effect on QRS interval time at 5 mg/kg, iv measured after 1 min (reference value: 16.7 to 20.7 ms); assay type: toxicity, organism-based; conditions: in vivo
[18] = biological target: Adrenergic receptor alpha-1 (Rattus norvegicus) (UniProt P15823+P23944+P43140); experiment: Displacement of [3H][…]prazosin from adrenergic alpha1 receptor in Wistar rat cortex at 10^-5 M incubated for 30 mins by microbeta liquid scintillation counting analysis
Rattus norvegicus [19] = experiment: Cardiotoxicity in Wistar rat assessed as effect on QT interval time at 5 mg/kg, iv measured after 5 mins (reference value: 57.7 to 61 ms); assay type: toxicity, organism-based; conditions: in vivo
Rattus norvegicus [20] = experiment: Cardiotoxicity in Wistar rat assessed as effect on heart rate at 5 mg/kg, iv measured after 5 mins (reference value: 323 to 374.5 bpm); assay type: toxicity, organism-based; conditions: in vivo
Rattus norvegicus [21] = experiment: Hypotensive activity in normotensive Wistar rat assessed as diastolic blood pressure at 5 mg/kg, iv measured after 30 mins (reference value: 86.5 to 119.4 mmHg); assay type: functional
Rattus norvegicus [22] = experiment: Hypotensive activity in normotensive Wistar rat assessed as systolic blood pressure at 5 mg/kg, iv measured after 5 mins (reference value: 119.2 to 148.6 mmHg); assay type: functional
[23] = biological target: Beta-1 adrenergic receptor (Rattus norvegicus, UniProt P18090); experiment: Displacement of [3H]-CGP-12177 from adrenergic beta1 receptor in Wistar rat cortex incubated for 60 mins by microbeta liquid scintillation counting analysis
Beta-1 adrenergic receptor, sequence (P18090 whole entry): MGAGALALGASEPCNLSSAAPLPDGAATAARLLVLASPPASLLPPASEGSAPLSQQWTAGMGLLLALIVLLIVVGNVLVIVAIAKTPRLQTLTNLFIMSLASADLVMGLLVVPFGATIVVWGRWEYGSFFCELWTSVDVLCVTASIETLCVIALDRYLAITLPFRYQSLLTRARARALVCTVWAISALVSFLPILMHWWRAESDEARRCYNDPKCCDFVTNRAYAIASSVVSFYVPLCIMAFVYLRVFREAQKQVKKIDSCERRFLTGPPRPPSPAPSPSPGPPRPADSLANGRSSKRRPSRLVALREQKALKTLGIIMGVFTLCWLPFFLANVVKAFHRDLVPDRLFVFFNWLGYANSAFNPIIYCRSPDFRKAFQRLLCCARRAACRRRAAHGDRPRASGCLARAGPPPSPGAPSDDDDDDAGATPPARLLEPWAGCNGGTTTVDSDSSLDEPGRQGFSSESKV

Rattus norvegicus [24] = experiment: Cardiotoxicity in Wistar rat assessed as effect on PQ interval time at 5 mg/kg, iv measured after 1 min (reference value: 52 to 57 ms); assay type: toxicity, organism-based; conditions: in vivo
Rattus norvegicus [25] = experiment: Hypotensive activity in normotensive Wistar rat assessed as systolic blood pressure at 5 mg/kg, iv measured after 10 mins (reference value: 119.2 to 148.6 mmHg); assay type: functional
Rattus norvegicus [26] = experiment: Cardiotoxicity in Wistar rat assessed as effect on QT interval time at 5 mg/kg, iv measured after 1 min (reference value: 57.7 to 61 ms); assay type: toxicity, organism-based; conditions: in vivo
Rattus norvegicus [27] = experiment: Cardiotoxicity in Wistar rat assessed as effect on QRS interval time at 5 mg/kg, iv measured after 5 mins (reference value: 16.7 to 20.7 ms); assay type: toxicity, organism-based; conditions: in vivo
Rattus norvegicus [28] = experiment: Hypotensive activity in normotensive Wistar rat assessed as systolic blood pressure at 5 mg/kg, iv measured after 20 mins (reference value: 119.2 to 148.6 mmHg); assay type: functional
Rattus norvegicus [29] = experiment: Cardiotoxicity in Wistar rat assessed as effect on heart rate at 5 mg/kg, iv measured after 15 mins (reference value: 323 to 374.5 bpm); assay type: toxicity, organism-based; conditions: in vivo, 0.25 h
Rattus norvegicus [30] = experiment: Cardiotoxicity in Wistar rat assessed as effect on heart rate at 5 mg/kg, iv measured after 1 min (reference value: 323 to 374.5 bpm); assay type: toxicity, organism-based; conditions: in vivo
Rattus norvegicus [31] = experiment: Cardiotoxicity in Wistar rat assessed as effect on QT interval time at 5 mg/kg, iv measured after 15 mins (reference value: 57.7 to 61 ms); assay type: toxicity, organism-based; conditions: in vivo, 0.25 h
Rattus norvegicus [32] = experiment: Cardiotoxicity in Wistar rat assessed as effect on PQ interval time at 5 mg/kg, iv measured after 15 mins (reference value: 52 to 57 ms); assay type: toxicity, organism-based; conditions: in vivo, 0.25 h
Rattus norvegicus [33] = experiment: In vivo inhibition of beta adrenoceptor in Wistar rat assessed as reduction in isoprenaline-induced tachycardia at 1 mg/kg, iv administered as single dose 10 mins prior to isoprenaline injection; assay type: functional, organism-based
Blood [34] = experiment: Anti-aggregative activity in Wistar rat whole blood assessed as inhibition of collagen/adrenaline-induced aggregation up to 100 uM preincubated for 3 mins followed by collagen induction measured for 6 mins; assay type: functional, tissue-based
Rattus norvegicus [35] = experiment: Antiarrhythmic activity in Wistar rat assessed as inhibition of adrenaline-induced premature ventricular extrasystoles administered iv 15 mins prior to adrenaline challenge; assay type: functional
Blood [36] = experiment: Anti-aggregative activity in Wistar rat whole blood assessed as inhibition of collagen-induced aggregation up to 100 uM preincubated for 3 mins followed by collagen induction measured for 6 mins; assay type: functional, tissue-based
Rattus norvegicus [37] = species on record: Rattus norvegicus; experiment: (§1) Inhibition of voltage gated calcium channel in Wistar rat aorta assessed as relaxation of KCl-precontracted aortic rings by measuring reduction in calcium entry in presence of phentolamine
[38] = as §1

## Cc1cccc2c(=O)c3ccc(OCC(O)CNC(C)(C)C)cc3oc12.Cl (racemic)
[1]
  Kb: 655 nM
Rattus norvegicus [2]
  Activity: 114 mmHg
Blood [3]
  pIC50: 4.20
  inhibition: Dose-dependent effect
Rattus norvegicus [4]
  Time: 18.5 ms
Rattus norvegicus [5]
  Time: 138.9 ms
Rattus norvegicus [6]
  Activity: 129.2 mmHg
Rattus norvegicus [7]
  Activity: 125 mmHg
Rattus norvegicus [8]
  Activity: inactive
[9]
  Activity: inactive
Rattus norvegicus [10]
  Time: 59.5 ms
Rattus norvegicus [11]
  Time: 135.2 ms
Rattus norvegicus [12]
  Activity: 126 mmHg
Rattus norvegicus [13]
  Time: 139.8 ms
Rattus norvegicus [14]
  inhibition: Active
Rattus norvegicus [15]
  Activity: 144 mmHg
Rattus norvegicus [16]
  Activity: 155.8 mmHg
Rattus norvegicus [17]
  Time: 18 ms
[18]
  Activity: inactive
Rattus norvegicus [19]
  Time: 59.5 ms
Rattus norvegicus [20]
  Activity: 310 bpm
Rattus norvegicus [21]
  Activity: 123.8 mmHg
Rattus norvegicus [22]
  Activity: 166.6 mmHg
[23]
  pIC50: 6.11
Rattus norvegicus [24]
  Time: 60.5 ms
Rattus norvegicus [25]
  Activity: 159.2 mmHg
Rattus norvegicus [26]
  Time: 59 ms
Rattus norvegicus [27]
  Time: 18.2 ms
Rattus norvegicus [28]
  Activity: 160 mmHg
Rattus norvegicus [29]
  Activity: 339.2 bpm
Rattus norvegicus [30]
  Activity: 337 bpm
Rattus norvegicus [31]
  Time: 58.5 ms
Rattus norvegicus [32]
  Time: 55.5 ms

## COc1ccccc1OCCNCC(O)COc1cccc2[nH]c3ccccc3c12 (stereo unspecified) [CARVEDILOL]
Rattus norvegicus [33]
  inhibition: Active
Blood [34]
  inhibition: inactive
Rattus norvegicus [35]
  ED50: 1.05 mg/kg
Blood [36]
  inhibition: inactive

## CC(C)NCC(O)COc1cccc2ccccc12 (stereo unspecified) [PROPRANOLOL]
Rattus norvegicus [35]
  ED50: 0.36 mg/kg

## COc1ccc(CCN(C)CCCC(C#N)(c2ccc(OC)c(OC)c2)C(C)C)cc1OC (stereo unspecified) [VERAPAMIL]
Rattus norvegicus [37]
  inhibition: Dose-dependent effect
Rattus norvegicus [37]; concentration not given here
  inhibition: 95%
[38]
  pIC50: 7.48
